Results reported in ChEMBL document CHEMBL1201862, “PubChem BioAssay data set” (2004).
One block for each compound: values may come before it. Calls of active or inactive are those of the source.

What was measured:
[1] = AlphaScreen signal interference compounds, dose response, artefact control for ARNT-TACC3 interaction inhibitor project, biochemical, luminescence, cherry-pick (AID 651705); assay type: functional;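 also: AlphaScreen bead proximity signal that flags compounds interfering with the detection technology; potency reflects signal decrease which marks the compound as an assay artifact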
SUMO-activating enzyme [2] = biological target: T1, SUMO-activating enzyme (Homo sapiens, UniProt Q9UBT2); assay: inhibitors of in vitro SUMOylation cascade, primary screen, biochemical, HTRF, uHTS (AID 2006); assay type: protein-complex assay
[3] = biological target: DNA damage-inducible transcript 3 protein (Mus musculus, UniProt P35639); assay type: functional, Cricetulus griseus
INS1 = assay: beta cell apoptosis inhibitors, cytokine rescue, dose response, luminescence, retest (AID 449756); assay type: functional, cell-based; conditions: Rattus norvegicus;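 also: cell death triggered by IL-1 beta plus TNF-alpha plus IFN-gamma mixture; protective hits raise ATP signal compared with cytokine alone wells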
Melanocortin receptor 4 = Melanocortin receptor 4 (Homo sapiens, UniProt P32245); assay type: functional, cell-based;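 also: Cell-based assay with luminescence read-out, confirmatory dose-response testing for agonist activity of biased ligands at MC4R; human U2OS cells with tagged receptor and beta-arrestin; potency of agonists that increase receptor coupling to beta-arrestin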
SUMO-activating enzyme [4] = biological target: T1, SUMO-activating enzyme; assay: SUMOylation inhibitor hit validation, confirmation, SUMOylation inhibitor project, biochemical, AlphaScreen (AID 2018); assay type: functional
[5] = growth suppression of beta-catenin-knockout colon cells, dose response, cell-based, HCT116, human colon tumor (AID 1045); assay type: functional;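 also: HCT116 colon tumor cells with beta catenin knocked out; cells exposed to compound for 60 hours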
[6] = biological target: Induced myeloid leukemia cell differentiation protein Mcl-1 (Homo sapiens, UniProt Q07820); assay type: functional
[7] = growth suppression of PTEN-null colon cells, dose response, cell-based, HCT116 PTEN knockout (AID 1047); assay type: functional;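 also: HCT116 colon tumor cells with PTEN knocked out; cells exposed to compound for 60 hours before readout; potency for loss of cell viability measured by luminescence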
[8] = biological target: Potassium voltage-gated channel subfamily KQT member 2 (Rattus norvegicus, UniProt O88943); assay: KCNQ2 potassium channel inhibitors, dose response, cell-based, automated electrophysiology, set II, rat KCNQ2 (AID 588637); assay type: functional
[9] = biological target: T2, Eukaryotic translation initiation factor 2-alpha kinase 3 (Homo sapiens, UniProt Q9NZJ5); assay: Counterscreen assay for PERK inhibitors: Dose response cell-based high throughput screening assay to measure inhibition of PERK at 6 hours. [Related pubchem assays: 1522, 1416 ]; assay type: functional
T2 sequence (Q9NZJ5 whole entry): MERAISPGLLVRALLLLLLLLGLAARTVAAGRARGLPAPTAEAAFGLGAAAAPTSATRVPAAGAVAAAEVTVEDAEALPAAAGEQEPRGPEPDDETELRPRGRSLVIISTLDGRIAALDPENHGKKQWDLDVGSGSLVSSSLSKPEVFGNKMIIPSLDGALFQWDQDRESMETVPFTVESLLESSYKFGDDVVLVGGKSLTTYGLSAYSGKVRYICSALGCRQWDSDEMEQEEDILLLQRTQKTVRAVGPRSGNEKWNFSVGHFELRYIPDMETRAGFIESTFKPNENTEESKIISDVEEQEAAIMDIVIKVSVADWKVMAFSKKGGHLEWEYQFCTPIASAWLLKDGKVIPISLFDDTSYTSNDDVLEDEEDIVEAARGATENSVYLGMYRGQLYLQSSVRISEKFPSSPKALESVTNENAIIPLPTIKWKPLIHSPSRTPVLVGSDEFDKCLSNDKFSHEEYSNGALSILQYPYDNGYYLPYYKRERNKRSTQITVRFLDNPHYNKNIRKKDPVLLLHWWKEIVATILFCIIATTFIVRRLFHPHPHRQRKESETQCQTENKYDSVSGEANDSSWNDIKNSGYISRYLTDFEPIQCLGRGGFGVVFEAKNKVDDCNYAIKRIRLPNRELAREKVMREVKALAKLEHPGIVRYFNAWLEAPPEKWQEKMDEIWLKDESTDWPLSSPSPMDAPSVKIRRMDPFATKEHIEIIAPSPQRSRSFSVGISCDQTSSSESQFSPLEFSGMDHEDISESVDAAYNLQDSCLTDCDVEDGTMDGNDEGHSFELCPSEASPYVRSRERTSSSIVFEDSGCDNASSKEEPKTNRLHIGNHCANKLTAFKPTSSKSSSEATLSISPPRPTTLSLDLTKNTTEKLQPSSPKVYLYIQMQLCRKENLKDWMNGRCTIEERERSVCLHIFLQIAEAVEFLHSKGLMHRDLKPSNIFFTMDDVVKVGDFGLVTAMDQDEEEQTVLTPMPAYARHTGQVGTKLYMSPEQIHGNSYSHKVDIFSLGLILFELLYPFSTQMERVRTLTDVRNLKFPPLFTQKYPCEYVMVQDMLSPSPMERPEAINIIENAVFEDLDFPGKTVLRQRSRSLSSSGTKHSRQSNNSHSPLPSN

[10] = biological target: T2, Eukaryotic translation initiation factor 2-alpha kinase 3; assay: Dose response cell-based high-throughput screening assay to measure PERK inhibition. [Related pubchem assays: 1416 ]; assay type: functional
[11] = biological target: T3, Apoptotic protease-activating factor 1 (Homo sapiens, UniProt O14727); assay: SAR analysis of small molecule Activators of Apaf-1 in a Fluorescent assay.; assay type: functional; conditions: read-out: EC50_Mean;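 also: caspase-3 cleavage of fluorogenic Rh110 DEVD substrate downstream of apoptosome activation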
T3 sequence (O14727 whole entry): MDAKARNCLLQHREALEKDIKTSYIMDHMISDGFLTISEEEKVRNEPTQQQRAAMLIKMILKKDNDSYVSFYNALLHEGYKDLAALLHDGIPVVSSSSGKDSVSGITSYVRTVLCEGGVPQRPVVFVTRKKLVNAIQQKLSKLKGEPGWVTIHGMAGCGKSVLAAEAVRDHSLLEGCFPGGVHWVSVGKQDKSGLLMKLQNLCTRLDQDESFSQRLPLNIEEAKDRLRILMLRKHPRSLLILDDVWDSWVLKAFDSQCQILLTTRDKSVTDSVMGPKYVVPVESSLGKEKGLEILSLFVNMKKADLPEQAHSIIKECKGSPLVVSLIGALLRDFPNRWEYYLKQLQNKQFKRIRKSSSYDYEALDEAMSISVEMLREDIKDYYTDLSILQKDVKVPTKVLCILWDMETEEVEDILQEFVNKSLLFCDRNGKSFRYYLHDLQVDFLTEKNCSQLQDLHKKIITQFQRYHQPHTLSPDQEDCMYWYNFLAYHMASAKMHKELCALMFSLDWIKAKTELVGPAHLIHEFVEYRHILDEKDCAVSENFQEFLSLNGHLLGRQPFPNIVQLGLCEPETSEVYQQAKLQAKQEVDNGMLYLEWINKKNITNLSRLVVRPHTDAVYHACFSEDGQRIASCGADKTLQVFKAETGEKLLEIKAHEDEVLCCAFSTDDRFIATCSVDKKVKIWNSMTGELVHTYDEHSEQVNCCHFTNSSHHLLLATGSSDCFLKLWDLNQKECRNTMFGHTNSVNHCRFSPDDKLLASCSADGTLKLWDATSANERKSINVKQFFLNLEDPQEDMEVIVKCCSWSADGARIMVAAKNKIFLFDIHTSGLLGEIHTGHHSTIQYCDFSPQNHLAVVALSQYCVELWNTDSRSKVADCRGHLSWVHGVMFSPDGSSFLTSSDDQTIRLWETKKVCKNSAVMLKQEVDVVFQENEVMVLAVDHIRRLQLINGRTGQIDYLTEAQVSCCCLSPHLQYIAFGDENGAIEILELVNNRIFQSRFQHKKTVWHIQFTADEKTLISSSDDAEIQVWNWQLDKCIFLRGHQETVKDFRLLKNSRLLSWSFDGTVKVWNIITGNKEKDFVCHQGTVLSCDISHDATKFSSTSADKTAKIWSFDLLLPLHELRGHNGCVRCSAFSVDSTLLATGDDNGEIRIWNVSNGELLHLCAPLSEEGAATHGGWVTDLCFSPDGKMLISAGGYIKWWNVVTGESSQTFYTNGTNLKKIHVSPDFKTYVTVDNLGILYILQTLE

HEK293 = assay: inhibitors of LMP1-driven NF-kB reporter, dose response, cell-based, HEK293, luciferase, cherry-pick (AID 588343); assay type: functional; conditions: Homo sapiens
[12] = biological target: ATP-dependent molecular chaperone HSP82 (Candida albicans (strain WO-1) (Yeast), UniProt C4YTQ8); assay: loss of DOC-induced GRE-beta-galactosidase reporter signal, dose response, Hsp90 inhibitor project, S. cerevisiae, luminescence (AID 2400); assay type: functional, cell-based;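 also: beta-galactosidase luminescence from glucocorticoid response element reporter as proxy for Hsp90 function; inhibitor potency where signal loss means Hsp90 inhibition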
[13] = NIH-3T3 fibroblast cytotoxicity, dose response, cytotoxicity control, cell-based, fluorescence, Alamar Blue, secondary assay (AID 2327); assay type: functional;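 also: NIH-3T3 mouse fibroblasts cultured with fluconazole at 8 µg/mL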
[14] = biological target: T4, Serine/threonine-protein phosphatase (Candida dubliniensis (strain CD36 / CBS 7987 / NCPF 3949 / NRRLY-17841) (Yeast), UniProt B9W6M3); assay: calcineurin pathway inhibitors in yeast reporter, dose response, S. cerevisiae, CDRE-lacZ, luminescence, secondary (AID 2388); assay type: functional, cell-based;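 also: yeast reporter cells carrying a calcineurin-responsive lacZ construct stimulated with calcium chloride; luminescent beta-galactosidase reporter signal in whole cells rather than isolated phosphatase activity; potency for inhibition where a drop in reporter signal means calcineurin blockade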
T4 sequence (B9W6M3 whole entry): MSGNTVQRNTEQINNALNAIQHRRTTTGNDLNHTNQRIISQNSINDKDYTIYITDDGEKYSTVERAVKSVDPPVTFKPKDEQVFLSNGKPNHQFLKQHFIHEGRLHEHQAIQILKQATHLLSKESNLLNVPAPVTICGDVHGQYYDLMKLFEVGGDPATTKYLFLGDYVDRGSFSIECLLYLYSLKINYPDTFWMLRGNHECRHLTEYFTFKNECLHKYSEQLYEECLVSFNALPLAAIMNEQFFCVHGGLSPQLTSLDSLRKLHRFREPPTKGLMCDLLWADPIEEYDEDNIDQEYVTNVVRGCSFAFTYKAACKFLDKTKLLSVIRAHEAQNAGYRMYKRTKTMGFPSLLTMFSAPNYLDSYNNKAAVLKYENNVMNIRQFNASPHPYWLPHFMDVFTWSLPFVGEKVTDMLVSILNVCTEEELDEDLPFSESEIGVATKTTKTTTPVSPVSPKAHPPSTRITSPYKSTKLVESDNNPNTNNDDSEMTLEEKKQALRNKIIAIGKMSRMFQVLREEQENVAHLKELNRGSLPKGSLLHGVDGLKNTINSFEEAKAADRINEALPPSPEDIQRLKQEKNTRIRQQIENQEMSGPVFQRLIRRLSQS

[15] = tested on: Streptococcus sp. 'group A'; assay: growth inhibition of control SK(-) GAS strain, dose response, counter-screen for streptokinase expression inhibitor project, luminescence, kanamycin, BacTiterGlo, confirmation (AID 1900); assay type: functional, organism-based
[16] = NIH-3T3 fibroblast cytotoxicity, dose response, cytotoxicity control for antifungal single agent project, cell-based, Alamar Blue, dry powder (AID 602188); assay type: functional
Streptococcus = assay: Group A Streptococcus viability loss, dose response, counter-screen for streptokinase expression inhibitor project, luminescence, BacTiterGlo (AID 1915); assay type: functional, organism-based;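 also: potency for reduction of bacterial viability or growth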
[17] = inhibitors of intracellular T. cruzi replication, confirmation, NIH3T3 host cells, beta-gal luminescence (AID 2044); assay type: functional, cell-based;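 also: intracellular parasites grown in NIH/3T3 mouse fibroblasts as host cells; luminescent beta-galactosidase reporter signal from transgenic T. cruzi replicating inside host cells; inhibitors lower the luminescence signal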
[18] = C. albicans growth with fluconazole, confirmation, fluorescence, retest (AID 2467); assay type: functional, cell-based
[19] = cytotoxicity toward NIH3T3 fibroblasts, dose response, counter-screen, cell-based, ATP luminescence, mouse fibroblasts (AID 2010); assay type: functional;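 also: cells exposed to compound for about 90 hours before reading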
[20] = biological target: Tyrosine-protein phosphatase non-receptor type 11 (Homo sapiens, UniProt Q06124); assay: SHP2 phosphatase inhibition, dose response, selectivity assay for STEP inhibitor project, biochemical (AID 602367); assay type: functional; conditions: read-out: IC50_Mean
[21] = biological target: Tyrosine-protein phosphatase non-receptor type 5 (Homo sapiens, UniProt P54829); assay: STEP phosphatase inhibitors, confirmation, biochemical, fluorescence intensity, uHTS hits (AID 602372); assay type: functional; conditions: read-out: IC50_Mean
[22] = biological target: T5, Carboxy-terminal domain RNA polymerase II polypeptide A small phosphatase 1 (Homo sapiens, UniProt Q9GZU7); assay: inhibitors of CTDSP1, concentration-response testing, biochemical assay, absorbance-based, actives from ultra-high-throughput screening (AID 540297); assay type: functional
T5 sequence (Q9GZU7 whole entry): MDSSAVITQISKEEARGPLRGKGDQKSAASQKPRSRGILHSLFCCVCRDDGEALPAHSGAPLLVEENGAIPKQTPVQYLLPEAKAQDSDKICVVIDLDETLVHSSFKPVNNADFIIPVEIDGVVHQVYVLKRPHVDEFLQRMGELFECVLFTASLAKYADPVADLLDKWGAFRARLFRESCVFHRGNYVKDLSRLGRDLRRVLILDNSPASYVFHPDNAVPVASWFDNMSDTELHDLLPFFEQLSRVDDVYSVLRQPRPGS

[23] = biological target: Dual specificity protein phosphatase 3 (Homo sapiens, UniProt P51452); assay: VHR phosphatase inhibition, dose response, selectivity assay for STEP inhibitor project, biochemical (AID 602374); assay type: functional; conditions: read-out: IC50_Mean
Sequence of Dual specificity protein phosphatase 3 (P51452 whole entry): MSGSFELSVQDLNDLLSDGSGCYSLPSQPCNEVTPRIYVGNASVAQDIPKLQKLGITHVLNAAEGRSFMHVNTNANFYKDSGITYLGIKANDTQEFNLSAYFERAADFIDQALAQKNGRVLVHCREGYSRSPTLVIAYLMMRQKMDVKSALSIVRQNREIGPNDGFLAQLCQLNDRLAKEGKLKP

T1 sequence (Q9UBE0 whole entry): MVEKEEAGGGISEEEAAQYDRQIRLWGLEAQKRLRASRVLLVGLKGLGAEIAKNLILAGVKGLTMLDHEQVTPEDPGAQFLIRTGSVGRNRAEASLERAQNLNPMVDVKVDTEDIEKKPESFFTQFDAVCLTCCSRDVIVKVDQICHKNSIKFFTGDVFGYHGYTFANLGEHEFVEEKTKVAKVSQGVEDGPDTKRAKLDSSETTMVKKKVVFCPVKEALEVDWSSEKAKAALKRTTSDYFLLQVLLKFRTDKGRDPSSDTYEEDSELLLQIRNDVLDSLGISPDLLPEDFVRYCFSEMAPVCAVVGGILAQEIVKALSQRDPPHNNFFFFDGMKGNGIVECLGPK
T1 sequence (Q9UBT2 whole entry): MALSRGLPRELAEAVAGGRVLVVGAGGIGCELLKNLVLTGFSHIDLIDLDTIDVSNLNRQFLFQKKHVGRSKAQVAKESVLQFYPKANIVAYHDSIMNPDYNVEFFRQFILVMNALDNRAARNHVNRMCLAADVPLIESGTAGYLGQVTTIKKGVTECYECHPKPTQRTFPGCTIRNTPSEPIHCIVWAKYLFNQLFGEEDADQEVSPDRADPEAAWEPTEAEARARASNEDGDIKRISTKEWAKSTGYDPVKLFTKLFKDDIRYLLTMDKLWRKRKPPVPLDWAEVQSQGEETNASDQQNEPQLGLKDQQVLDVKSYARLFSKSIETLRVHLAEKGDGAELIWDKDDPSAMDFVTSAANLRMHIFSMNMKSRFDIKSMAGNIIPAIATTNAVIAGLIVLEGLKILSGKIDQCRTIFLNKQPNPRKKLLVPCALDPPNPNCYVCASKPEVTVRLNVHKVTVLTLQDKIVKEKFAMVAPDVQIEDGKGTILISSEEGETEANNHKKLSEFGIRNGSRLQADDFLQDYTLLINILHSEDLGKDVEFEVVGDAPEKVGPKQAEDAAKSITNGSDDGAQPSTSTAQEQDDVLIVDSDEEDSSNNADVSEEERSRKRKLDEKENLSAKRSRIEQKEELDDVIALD
Sequence of Potassium voltage-gated channel subfamily KQT member 2 (O88943 whole entry): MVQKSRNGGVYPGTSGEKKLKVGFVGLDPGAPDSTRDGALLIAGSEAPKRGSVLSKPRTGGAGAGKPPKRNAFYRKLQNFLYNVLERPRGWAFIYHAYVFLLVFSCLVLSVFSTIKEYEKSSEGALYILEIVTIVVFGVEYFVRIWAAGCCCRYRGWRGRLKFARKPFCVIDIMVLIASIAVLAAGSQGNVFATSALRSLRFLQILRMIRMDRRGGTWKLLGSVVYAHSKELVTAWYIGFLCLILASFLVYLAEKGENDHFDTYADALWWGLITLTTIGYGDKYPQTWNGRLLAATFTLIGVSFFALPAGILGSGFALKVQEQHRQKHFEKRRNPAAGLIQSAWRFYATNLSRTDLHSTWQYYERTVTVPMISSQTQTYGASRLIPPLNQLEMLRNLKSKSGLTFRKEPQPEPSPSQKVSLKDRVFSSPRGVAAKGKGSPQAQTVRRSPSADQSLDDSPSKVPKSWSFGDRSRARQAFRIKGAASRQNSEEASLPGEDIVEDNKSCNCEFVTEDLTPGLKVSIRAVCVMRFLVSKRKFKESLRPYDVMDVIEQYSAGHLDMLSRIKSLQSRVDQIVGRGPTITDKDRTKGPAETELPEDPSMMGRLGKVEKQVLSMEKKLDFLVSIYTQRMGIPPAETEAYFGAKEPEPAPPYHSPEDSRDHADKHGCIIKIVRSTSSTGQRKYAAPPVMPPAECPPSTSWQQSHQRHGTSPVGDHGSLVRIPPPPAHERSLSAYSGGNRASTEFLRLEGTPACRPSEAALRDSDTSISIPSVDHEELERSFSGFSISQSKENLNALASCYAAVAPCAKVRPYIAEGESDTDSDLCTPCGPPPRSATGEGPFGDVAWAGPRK
Sequence of Induced myeloid leukemia cell differentiation protein Mcl-1 (Q07820 whole entry): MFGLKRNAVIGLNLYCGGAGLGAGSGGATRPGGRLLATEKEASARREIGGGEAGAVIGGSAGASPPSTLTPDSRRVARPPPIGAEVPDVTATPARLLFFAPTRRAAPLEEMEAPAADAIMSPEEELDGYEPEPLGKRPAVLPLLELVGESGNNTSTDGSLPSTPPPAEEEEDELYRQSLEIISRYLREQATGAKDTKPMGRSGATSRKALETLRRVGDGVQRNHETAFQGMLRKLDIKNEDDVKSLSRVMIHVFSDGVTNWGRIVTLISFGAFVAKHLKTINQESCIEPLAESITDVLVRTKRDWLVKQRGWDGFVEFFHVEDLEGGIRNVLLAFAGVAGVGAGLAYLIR
Sequence of Tyrosine-protein phosphatase non-receptor type 5 (P54829 whole entry, the tested form may be a part): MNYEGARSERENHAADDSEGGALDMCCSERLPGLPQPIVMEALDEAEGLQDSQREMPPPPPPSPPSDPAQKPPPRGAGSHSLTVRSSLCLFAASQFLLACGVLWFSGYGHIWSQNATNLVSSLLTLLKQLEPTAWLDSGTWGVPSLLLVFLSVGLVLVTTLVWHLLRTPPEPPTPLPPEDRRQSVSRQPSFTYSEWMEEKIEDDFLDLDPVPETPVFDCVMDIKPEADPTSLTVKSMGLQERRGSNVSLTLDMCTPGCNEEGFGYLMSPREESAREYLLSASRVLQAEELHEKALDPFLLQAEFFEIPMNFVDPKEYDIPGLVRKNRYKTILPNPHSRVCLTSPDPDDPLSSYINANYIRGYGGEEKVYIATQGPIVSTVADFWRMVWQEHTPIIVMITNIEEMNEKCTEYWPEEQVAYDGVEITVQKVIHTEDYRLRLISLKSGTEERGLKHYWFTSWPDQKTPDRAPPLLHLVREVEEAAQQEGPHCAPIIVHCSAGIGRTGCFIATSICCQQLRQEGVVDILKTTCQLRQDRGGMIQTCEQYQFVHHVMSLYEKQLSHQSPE
Sequence of Melanocortin receptor 4 (P32245 whole entry): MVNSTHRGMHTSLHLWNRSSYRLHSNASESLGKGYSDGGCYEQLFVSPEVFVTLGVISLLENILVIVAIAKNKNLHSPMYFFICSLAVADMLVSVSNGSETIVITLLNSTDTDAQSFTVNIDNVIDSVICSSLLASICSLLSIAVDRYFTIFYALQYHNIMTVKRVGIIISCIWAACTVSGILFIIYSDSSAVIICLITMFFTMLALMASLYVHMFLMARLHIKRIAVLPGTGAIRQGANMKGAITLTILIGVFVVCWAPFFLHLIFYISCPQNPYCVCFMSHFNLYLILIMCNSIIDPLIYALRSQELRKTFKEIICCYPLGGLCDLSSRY
Sequence of DNA damage-inducible transcript 3 protein (P35639 whole entry): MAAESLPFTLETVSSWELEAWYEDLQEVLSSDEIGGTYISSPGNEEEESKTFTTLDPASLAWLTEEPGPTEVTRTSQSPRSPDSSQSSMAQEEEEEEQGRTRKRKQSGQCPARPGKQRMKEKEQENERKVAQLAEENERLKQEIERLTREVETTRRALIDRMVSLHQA
Sequence of ATP-dependent molecular chaperone HSP82 (C4YTQ8 whole entry): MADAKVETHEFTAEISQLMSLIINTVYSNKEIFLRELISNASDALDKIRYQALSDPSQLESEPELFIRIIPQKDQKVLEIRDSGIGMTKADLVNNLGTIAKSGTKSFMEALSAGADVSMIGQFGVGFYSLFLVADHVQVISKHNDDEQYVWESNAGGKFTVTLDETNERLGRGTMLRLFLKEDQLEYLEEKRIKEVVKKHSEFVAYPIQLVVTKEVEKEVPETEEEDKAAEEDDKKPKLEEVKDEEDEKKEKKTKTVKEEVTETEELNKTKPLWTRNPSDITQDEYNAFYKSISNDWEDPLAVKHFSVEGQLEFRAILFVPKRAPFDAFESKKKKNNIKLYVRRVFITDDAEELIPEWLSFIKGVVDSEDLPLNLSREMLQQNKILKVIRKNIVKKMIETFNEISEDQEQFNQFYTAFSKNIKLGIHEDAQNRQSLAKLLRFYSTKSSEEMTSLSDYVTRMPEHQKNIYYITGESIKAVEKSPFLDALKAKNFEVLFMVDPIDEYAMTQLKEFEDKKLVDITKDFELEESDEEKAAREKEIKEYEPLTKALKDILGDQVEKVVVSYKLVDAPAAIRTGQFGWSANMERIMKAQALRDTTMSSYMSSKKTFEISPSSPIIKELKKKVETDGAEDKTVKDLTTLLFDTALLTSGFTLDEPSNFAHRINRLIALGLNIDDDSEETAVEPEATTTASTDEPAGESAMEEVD

IC50 [8]: 8.84 µM (active)
SMILES: Cc1ccccc1OCCn1cc(C(=O)C(=O)N2CCOCC2)c2ccccc21

EC50 [9]: > 55.7 µM (not active)
EC50 [10]: > 55.7 µM (not active)
EC50 [11]: > 100 µM (inactive)
SMILES: Cc1csc2c(=O)sc(NC(=O)c3ccc(F)cc3)nc12

IC50 [20]: 1.13 µM (active)
IC50 [21]: 30.9 µM (inactive)
IC50 [22]: 3.71 µM (active)
IC50 [23]: 2.62 µM (active)
SMILES: CCN(c1ccccc1)S(=O)(=O)c1cc(C(=O)OCC(=O)c2c(N)n(C)c(=O)n(C)c2=O)ccc1C

The next lines start with the compound.

SMILES: O=C(O)c1ccccc1-c1ccccc1C(=O)Nc1ccc2c(c1)nc(O)c1ccccc12
AC50 [1]: 79.9 µM (active)

SMILES: O=C(N=Nc1c(O)n(Cc2ccccc2)c2ccccc12)c1cc2ccccc2cc1O
IC50 (SUMO-activating enzyme [2]): 13.8 µM (active)
Absolute IC50 (CHOP) [3]: 10 µM
AC50 (INS1): 7.06 µM (active)
EC50 (Melanocortin receptor 4): > 89.2 µM (inactive)
IC50 (SUMO-activating enzyme [4]): 12.3 µM (active)
EC50 [5]: 5.03 µM (active)
IC50 [6]: 5.39 µM (active)
EC50 [7]: 4.96 µM (active)

SMILES: COc1ccc(-c2nnc(NC(=O)c3ccc(S(=O)(=O)N4CCCc5ccccc54)cc3)o2)cc1
AC50 (HEK293): 3.47 µM (active)
EC50 [12]: > 150 µM (inactive)
EC50 [13]: 32.9 µM (inconclusive)
EC50 [14]: > 180 µM (inactive)
EC50 [15]: 0.186 µM (active)
AC50 [16]: 2.71 µM (active)
EC50 (Streptococcus): 0.855 µM (active)
EC50 [17]: 0.795 µM (active)
EC50 [18]: 0.326 µM (active)
EC50 [19]: 5.82 µM (active)
